According to the supplement of paper PMC10307832:

Experiments:
Test in all cases: relative viability (nuclei count vs DMSO), 5 days (fraction); higher = more cells survive
HCC-15 = test system: HCC-15
Procedure, shortened: (§1)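 Relative viability was taken as the ratio of nuclei in treated wells to nuclei in vehicle wells. Lung cancer cell lines in 1536-well plates received compounds by pin tool one day after seeding, either one drug alone or a fixed anchor-drug dose plus five library-drug doses (not always all listed) in √10 steps. Nuclei were counted on 4× images after 5 days of treatment, and values are medians of duplicate plates.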

HCC-44 = test system: HCC-44
Procedure, shortened: as §1

UMC-11 = test system: UMC-11
Procedure, shortened: as §1

NCI-H1755 = test system: NCI-H1755
Procedure, shortened: as §1

EKVX = test system: EKVX
Procedure, shortened: as §1

A549 = test system: A549
Procedure, shortened: as §1

NCI-H1623 = test system: NCI-H1623
Procedure, shortened: as §1

LCLC-103H = test system: LCLC-103H
Procedure, shortened: as §1

NCI-H1395 = test system: NCI-H1395
Procedure, shortened: as §1

Structure (SMILES): O=c1cc(-c2cccc3c2Sc2ccccc2S3)oc(N2CCOCC2)c1 + N=C(N)NC(=N)NCCc1ccccc1 [Phenformin] (partner 250 µM)
- relative viability (HCC-15; first compound 0.08 µM): 0.394
- relative viability (HCC-15; first compound 0.253 µM): 0.608
- relative viability (HCC-15; first compound 0.8 µM): 0.468
- relative viability (HCC-15; first compound 2.53 µM): 0.472
- relative viability (HCC-15; first compound 8 µM): 0.503
- relative viability (HCC-44; first compound 0.08 µM): 0.173
- relative viability (HCC-44; first compound 0.253 µM): 0.172
- relative viability (HCC-44; first compound 0.8 µM): 0.144
- relative viability (HCC-44; first compound 2.53 µM): 0.182
- relative viability (HCC-44; first compound 8 µM): 0.217
- relative viability (UMC-11; first compound 0.08 µM): 0.322
- relative viability (UMC-11; first compound 0.253 µM): 0.34
- relative viability (UMC-11; first compound 0.8 µM): 0.372
- relative viability (UMC-11; first compound 2.53 µM): 0.29
- relative viability (UMC-11; first compound 8 µM): 0.324
- relative viability (NCI-H1755; first compound 0.08 µM): 0.625
- relative viability (NCI-H1755; first compound 0.253 µM): 0.694
- relative viability (NCI-H1755; first compound 0.8 µM): 0.597
- relative viability (NCI-H1755; first compound 2.53 µM): 0.545
- relative viability (NCI-H1755; first compound 8 µM): 0.653
- relative viability (EKVX; first compound 0.08 µM): 0.191
- relative viability (EKVX; first compound 0.253 µM): 0.237
- relative viability (EKVX; first compound 0.8 µM): 0.218
- relative viability (EKVX; first compound 2.53 µM): 0.209
- relative viability (EKVX; first compound 8 µM): 0.265
- relative viability (A549; first compound 0.08 µM): 0.202
- relative viability (A549; first compound 0.253 µM): 0.097
- relative viability (A549; first compound 0.8 µM): 0.315
- relative viability (A549; first compound 2.53 µM): 0.129
- relative viability (A549; first compound 8 µM): 0.28
- relative viability (NCI-H1623; first compound 0.08 µM): 0.603
- relative viability (NCI-H1623; first compound 0.253 µM): 0.68
- relative viability (NCI-H1623; first compound 0.8 µM): 0.593
- relative viability (NCI-H1623; first compound 2.53 µM): 0.535
- relative viability (NCI-H1623; first compound 8 µM): 0.576
- relative viability (LCLC-103H; first compound 0.08 µM): 0.31
- relative viability (LCLC-103H; first compound 0.253 µM): 0.374
- relative viability (LCLC-103H; first compound 0.8 µM): 0.361
- relative viability (LCLC-103H; first compound 2.53 µM): 0.336
- relative viability (LCLC-103H; first compound 8 µM): 0.296
- relative viability (NCI-H1395; first compound 0.08 µM): 0.462
- relative viability (NCI-H1395; first compound 0.253 µM): 0.393
- relative viability (NCI-H1395; first compound 0.8 µM): 0.472
- relative viability (NCI-H1395; first compound 2.53 µM): 0.389
- relative viability (NCI-H1395; first compound 8 µM): 0.433

Structure (SMILES): COc1nc(C)cnc1NS(=O)(=O)c1cccnc1-c1ccc(-c2nnco2)cc1 [Zibotentan] + CCNC(=O)c1noc(-c2cc(C(C)C)c(O)cc2O)c1-c1ccc(CN2CCOCC2)cc1 [Luminespib] (partner 0.01 µM)
- relative viability (HCC-15; first compound 0.08 µM): 0.244
- relative viability (HCC-15; first compound 0.253 µM): 0.114
- relative viability (HCC-15; first compound 0.8 µM): 0.4
- relative viability (HCC-15; first compound 2.53 µM): 0.365
- relative viability (HCC-44; first compound 0.08 µM): 1.63
- relative viability (HCC-44; first compound 0.8 µM): 1.07
- relative viability (HCC-44; first compound 2.53 µM): 1.08
- relative viability (UMC-11; first compound 0.08 µM): 1.1
- relative viability (UMC-11; first compound 0.253 µM): 0.974
- relative viability (UMC-11; first compound 0.8 µM): 0.978
- relative viability (UMC-11; first compound 2.53 µM): 0.997
- relative viability (NCI-H1755; first compound 0.08 µM): 0.338
- relative viability (NCI-H1755; first compound 0.253 µM): 0.558
- relative viability (NCI-H1755; first compound 0.8 µM): 0.489
- relative viability (NCI-H1755; first compound 2.53 µM): 0.252
- relative viability (EKVX; first compound 0.08 µM): 0.762
- relative viability (EKVX; first compound 0.253 µM): 0.88
- relative viability (EKVX; first compound 0.8 µM): 0.832
- relative viability (EKVX; first compound 2.53 µM): 0.877
- relative viability (NCI-H1623; first compound 0.08 µM): 0.427
- relative viability (NCI-H1623; first compound 0.8 µM): 0.445
- relative viability (NCI-H1623; first compound 2.53 µM): 0.486
- relative viability (LCLC-103H; first compound 0.08 µM): 0.913
- relative viability (LCLC-103H; first compound 0.253 µM): 0.682
- relative viability (LCLC-103H; first compound 0.8 µM): 0.982
- relative viability (LCLC-103H; first compound 2.53 µM): 0.927
- relative viability (NCI-H1395; first compound 0.08 µM): 0.725
- relative viability (NCI-H1395; first compound 0.253 µM): 0.724
- relative viability (NCI-H1395; first compound 0.8 µM): 0.649
- relative viability (NCI-H1395; first compound 2.53 µM): 0.754

Structure (SMILES): COc1nc(C)cnc1NS(=O)(=O)c1cccnc1-c1ccc(-c2nnco2)cc1 [Zibotentan] + Cc1nc(Nc2ncc(C(=O)Nc3c(C)cccc3Cl)s2)cc(N2CCN(CCO)CC2)n1 [Dasatinib] (partner 0.075 µM)
- relative viability (HCC-15; first compound 0.08 µM): 0.601
- relative viability (HCC-15; first compound 0.8 µM): 0.512
- relative viability (HCC-15; first compound 2.53 µM): 0.684
- relative viability (UMC-11; first compound 0.08 µM): 0.394
- relative viability (UMC-11; first compound 0.253 µM): 0.436
- relative viability (UMC-11; first compound 0.8 µM): 0.475
- relative viability (UMC-11; first compound 2.53 µM): 0.469
- relative viability (NCI-H1755; first compound 0.08 µM): 0.433
- relative viability (NCI-H1755; first compound 0.253 µM): 0.413
- relative viability (NCI-H1755; first compound 0.8 µM): 0.4
- relative viability (NCI-H1755; first compound 2.53 µM): 0.473
- relative viability (EKVX; first compound 0.08 µM): 0.612
- relative viability (EKVX; first compound 0.253 µM): 0.529
- relative viability (EKVX; first compound 0.8 µM): 0.392
- relative viability (EKVX; first compound 2.53 µM): 0.572
- relative viability (NCI-H1623; first compound 0.08 µM): 0.533
- relative viability (NCI-H1623; first compound 0.8 µM): 0.567
- relative viability (NCI-H1623; first compound 2.53 µM): 0.507
- relative viability (LCLC-103H; first compound 0.08 µM): 0.47
- relative viability (LCLC-103H; first compound 0.253 µM): 0.562
- relative viability (LCLC-103H; first compound 0.8 µM): 0.451
- relative viability (LCLC-103H; first compound 2.53 µM): 0.531
- relative viability (NCI-H1395; first compound 0.08 µM): 0.409
- relative viability (NCI-H1395; first compound 0.253 µM): 0.403
- relative viability (NCI-H1395; first compound 0.8 µM): 0.409
- relative viability (NCI-H1395; first compound 2.53 µM): 0.407

Structure (SMILES): COc1nc(C)cnc1NS(=O)(=O)c1cccnc1-c1ccc(-c2nnco2)cc1 [Zibotentan] + N=C(N)NC(=N)NCCc1ccccc1 [Phenformin] (partner 250 µM)
- relative viability (HCC-15; first compound 0.08 µM): 0.524
- relative viability (HCC-15; first compound 0.8 µM): 0.493
- relative viability (HCC-15; first compound 2.53 µM): 0.451
- relative viability (HCC-44; first compound 0.08 µM): 0.167
- relative viability (HCC-44; first compound 0.253 µM): 0.201
- relative viability (HCC-44; first compound 0.8 µM): 0.273
- relative viability (HCC-44; first compound 2.53 µM): 0.158
- relative viability (UMC-11; first compound 0.08 µM): 0.318
- relative viability (UMC-11; first compound 0.253 µM): 0.291
- relative viability (UMC-11; first compound 0.8 µM): 0.312
- relative viability (UMC-11; first compound 2.53 µM): 0.346
- relative viability (NCI-H1755; first compound 0.08 µM): 0.658
- relative viability (NCI-H1755; first compound 0.253 µM): 0.636
- relative viability (NCI-H1755; first compound 0.8 µM): 0.599
- relative viability (NCI-H1755; first compound 2.53 µM): 0.703
- relative viability (EKVX; first compound 0.08 µM): 0.242
- relative viability (EKVX; first compound 0.253 µM): 0.238
- relative viability (EKVX; first compound 0.8 µM): 0.249
- relative viability (EKVX; first compound 2.53 µM): 0.245
- relative viability (A549; first compound 0.08 µM): 0.184
- relative viability (A549; first compound 0.253 µM): 0.136
- relative viability (A549; first compound 0.8 µM): 0.183
- relative viability (A549; first compound 2.53 µM): 0.135
- relative viability (NCI-H1623; first compound 0.08 µM): 0.592
- relative viability (NCI-H1623; first compound 0.8 µM): 0.626
- relative viability (NCI-H1623; first compound 2.53 µM): 0.564
- relative viability (LCLC-103H; first compound 0.08 µM): 0.357
- relative viability (LCLC-103H; first compound 0.253 µM): 0.314
- relative viability (LCLC-103H; first compound 0.8 µM): 0.315
- relative viability (LCLC-103H; first compound 2.53 µM): 0.333
- relative viability (NCI-H1395; first compound 0.08 µM): 0.43
- relative viability (NCI-H1395; first compound 0.253 µM): 0.45
- relative viability (NCI-H1395; first compound 0.8 µM): 0.464
- relative viability (NCI-H1395; first compound 2.53 µM): 0.486
